Measured values reported in US8247556B2, “Method for preparing 6-substituted-7-aza-indoles” (Amgen Inc., priority 2005, dated 2012).

Columns and labels:
CYP 2D6 = target: T1, CYP 2D6 (Homo sapiens, UniProt P10635); experiment: Human Liver Microsome CYP 2D6 Inhibition; format: in vitro ADME; conditions: human liver microsomes, bufuralol substrate; read-out: inhibited CYP2D6 microsomes, IC50
T1 construct: followed by 555.6 ml of 20 mg/mL HLM (BD Gentest); tissue BD Gentest; host or cells: human liver microsomes
T1 sequence (P10635 whole entry): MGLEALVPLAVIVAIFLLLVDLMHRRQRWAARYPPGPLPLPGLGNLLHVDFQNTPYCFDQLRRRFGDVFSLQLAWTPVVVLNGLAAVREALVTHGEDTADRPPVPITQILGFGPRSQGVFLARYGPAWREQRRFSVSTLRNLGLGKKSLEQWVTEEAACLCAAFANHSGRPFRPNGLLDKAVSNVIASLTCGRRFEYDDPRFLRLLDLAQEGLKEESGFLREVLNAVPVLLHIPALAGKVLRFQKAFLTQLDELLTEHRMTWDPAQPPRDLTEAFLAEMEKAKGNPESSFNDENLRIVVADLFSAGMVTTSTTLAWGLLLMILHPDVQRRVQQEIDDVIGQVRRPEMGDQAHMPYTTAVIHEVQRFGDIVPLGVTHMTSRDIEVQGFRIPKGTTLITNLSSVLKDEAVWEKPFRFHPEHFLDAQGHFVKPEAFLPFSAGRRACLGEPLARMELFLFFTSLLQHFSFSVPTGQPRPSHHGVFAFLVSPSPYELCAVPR
Procedure, shortened: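 Pooled human liver microsomes with bufuralol in potassium phosphate pH 7.4, preincubated with inhibitor at 37 °C; reaction started with NADPH, quenched after 5 min with 0.1% TFA in acetonitrile. 1′-OH-bufuralol quantified by LC-MS with deuterated internal standard; IC50 determined, quinidine 500 nM as control.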

CYP 3A4 = target: T2, CYP 3A4 (Homo sapiens, UniProt P08684); experiment: Human Liver Microsome CYP 3A4 Inhibition; format: in vitro ADME; conditions: human liver microsomes, midazolam substrate; read-out: inhibited CYP3A4 microsomes, IC50
T2 construct: followed by 222.2 ml of 20 mg/mL HLM (BD Gentest); tissue BD Gentest; host or cells: human liver microsomes
T2 sequence (P08684 whole entry): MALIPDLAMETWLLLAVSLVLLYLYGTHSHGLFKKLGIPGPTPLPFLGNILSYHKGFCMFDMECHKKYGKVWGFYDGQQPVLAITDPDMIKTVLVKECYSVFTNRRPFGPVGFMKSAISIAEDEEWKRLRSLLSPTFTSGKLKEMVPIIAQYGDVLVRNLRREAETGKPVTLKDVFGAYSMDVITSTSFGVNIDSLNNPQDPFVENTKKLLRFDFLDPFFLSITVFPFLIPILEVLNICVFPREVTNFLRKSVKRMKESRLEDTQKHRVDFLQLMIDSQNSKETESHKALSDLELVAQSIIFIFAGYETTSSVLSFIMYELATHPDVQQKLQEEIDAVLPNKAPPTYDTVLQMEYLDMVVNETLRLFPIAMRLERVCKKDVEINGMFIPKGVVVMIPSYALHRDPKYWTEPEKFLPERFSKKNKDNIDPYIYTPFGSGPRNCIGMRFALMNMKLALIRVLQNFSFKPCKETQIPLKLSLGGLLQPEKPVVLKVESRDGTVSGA
Experimental: Determining the IC-50 for Human Liver Microsome CYP 3A4 Inhibition
Postassium Phosphate Buffer pH 7.4 (39.667 mL) is chilled in an ice bath and added to a 50 ml plastic tube. A 2 mM midazolam solution is prepared. 111.1 ul of 2 mM midazolam is added to the buffer followed by 222.2 ml of 20 mg/mL HLM (BD Gentest). The incubation mixture was gently inverted and equilibrated at 37° C. for 5 min. A stock inhibitor solution is prepared, such as in DMSO. Incubation mixture (801 ul) is added into 96-well, 1.2 mL plastic tubes. Inhibitor is added at various concentrations (e.g. 30 uM to 120 nM). The tubes are sealed and mix by inverting 5 times gently. The incubation mixture containing inhibitor (270 uL) is added by aliquot into wells of a 1 mL, 96-well block (duplicate). The block is placed into a 37° C. water bath and equilibrated for 3 min. 10 mM NADPH (30 ml) is added to all samples. After 5 minutes, the reactions are stopped by adding 300 ml of Quench Solution [0.1% TFA in CH3CN]. 1′-OH-Midazolam-d313C (2 mg/mL 30 uL) is added, the block is gently vortexed then centrifuged at 3000 rpm for 10 minutes at 4° C. 50 μL of supernatant from all samples is added by aliquot into a shorter, 96-well block. The aliquoted supernatants are pooled with other assay(s) and HPLC Grade Water (50 ul) is added to all samples. After covering and shaking by vortex gently for 2 minutes, the solutions were analyzed by LC-MS (API 3000,5% MeOH w/0.1% AcOH to 95% MeOH w/0.1% AcOH). 37 nM ketoconazole is used as a control.

[1] = test system: VEGF-stimulated HUVEC proliferation (Human Umbilical Vein Endothelial cells); experiment: HUVEC Proliferation Assay; format: cell-based; conditions: VEGF 50 ng/mL, 72 h, CyQuant fluorescent dye, read-out: inhibited VEGF-stimulated HUVEC proliferation at a level
Procedure, shortened: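 HUVEC (passage 2–3) were seeded in DMEM+10% FBS for 22 h, then pre-incubated 2–3 h with 5-point, 5-fold compound dilutions (0.25% DMSO). They were then stimulated with VEGF (50 ng/mL final) for 72 h at 37 °C. Proliferation was read by CyQuant fluorescence (485/530 nm) after freeze-thaw, and IC50 came from a 4-parameter fit.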

| Compound | IC50 (CYP 2D6) [µM] | IC50 (CYP 3A4) [µM] | IC50 [1] [µM] |
| --- | --- | --- | --- |
| CC(C)c1ccc(NC(=O)c2cc(F)cnc2NCc2ccnc3[nH]ncc23)cc1 [Example 123, 5-Fluoro-N-(4-(1-methylethyl)phenyl)-2-((1H-pyrazolo[3,4-b]pyridin-4-ylmethyl)amino)-3-pyridinecarboxamide] | > 20 | > 20 | < 0.5 |
| CC(C)(C)c1ccc(NC(=O)c2cc(F)cnc2NCc2ccnc3[nH]ncc23)cc1 [Example 125, N-(4-(1,1-Dimethylethyl)phenyl)-5-fluoro-2-((1H-pyrazolo[3,4-b]pyridin-4-ylmethyl)amino)-3-pyridinecarboxamide] | > 20 | > 20 | < 0.5 |
| O=C(Nc1ccc(OC(F)(F)F)cc1)c1cc(F)cnc1NCc1ccnc2[nH]ncc12 [Example 126, 5-Fluoro-2-((1H-pyrazolo[3,4-b]pyridin-4-ylmethyl)amino)-N-(4-((trifluoromethyl)oxy)phenyl)-3-pyridinecarboxamide] | > 20 | > 20 | < 0.5 |
| CC1(C)CNc2cc(NC(=O)c3cc(F)cnc3NCc3ccnc4[nH]ccc34)ccc21 [Example 130, N-(3,3-Dimethyl-2,3-dihydro-1H-indol-6-yl)-5-fluoro-2-((1H-pyrrolo[2,3-b]pyridin-4-ylmethyl)amino)-3-pyridinecarboxamide] | > 20 | > 20 | < 0.5 |
